This passage reports IC50 results from patent US8841456B2, “1,5-naphthyridine derivative or salt thereof” (FUJIFILM Corporation, priority 2011, dated 2014).

pIC50: −log10 of the molar value. Like-named read-outs stand apart in the source and are kept apart here. Where only a bound is given, the exact number is not on record here.

In experiment [1] the target is T1, human PI3Kα protein (Homo sapiens, UniProt P42336).
T1 construct: purchased Carna Biosciences, Inc; host or cells: Baculovirus expression system
T1 sequence (P42336 whole entry): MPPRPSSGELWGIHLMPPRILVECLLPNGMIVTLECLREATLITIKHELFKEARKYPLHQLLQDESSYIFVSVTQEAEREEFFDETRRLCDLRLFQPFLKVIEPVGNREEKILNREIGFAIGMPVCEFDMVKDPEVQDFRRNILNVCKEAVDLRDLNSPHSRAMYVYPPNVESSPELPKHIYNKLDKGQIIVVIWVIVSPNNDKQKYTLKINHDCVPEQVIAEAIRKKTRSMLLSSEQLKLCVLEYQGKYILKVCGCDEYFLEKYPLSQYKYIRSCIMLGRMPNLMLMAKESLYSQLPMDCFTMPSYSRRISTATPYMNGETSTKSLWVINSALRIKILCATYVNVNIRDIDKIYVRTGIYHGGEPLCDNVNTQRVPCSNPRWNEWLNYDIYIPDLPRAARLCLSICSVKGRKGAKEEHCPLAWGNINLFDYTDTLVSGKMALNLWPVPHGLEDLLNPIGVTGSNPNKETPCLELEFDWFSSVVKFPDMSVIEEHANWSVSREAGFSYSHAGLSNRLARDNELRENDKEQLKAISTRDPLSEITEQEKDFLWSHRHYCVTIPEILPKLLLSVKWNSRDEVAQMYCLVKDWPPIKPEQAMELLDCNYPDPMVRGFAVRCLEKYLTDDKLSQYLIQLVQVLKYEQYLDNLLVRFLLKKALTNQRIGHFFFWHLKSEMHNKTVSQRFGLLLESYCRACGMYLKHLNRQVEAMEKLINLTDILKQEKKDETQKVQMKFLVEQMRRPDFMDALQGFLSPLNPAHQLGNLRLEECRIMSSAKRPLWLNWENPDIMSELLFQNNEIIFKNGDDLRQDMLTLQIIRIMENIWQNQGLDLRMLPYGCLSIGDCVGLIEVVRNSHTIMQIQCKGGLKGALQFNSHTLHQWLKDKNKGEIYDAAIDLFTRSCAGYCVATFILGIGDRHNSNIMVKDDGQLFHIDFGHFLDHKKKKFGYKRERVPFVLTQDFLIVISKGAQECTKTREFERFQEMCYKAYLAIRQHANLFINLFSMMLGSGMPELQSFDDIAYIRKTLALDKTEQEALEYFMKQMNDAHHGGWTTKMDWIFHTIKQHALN
T1 sequence (P27986 whole entry partner): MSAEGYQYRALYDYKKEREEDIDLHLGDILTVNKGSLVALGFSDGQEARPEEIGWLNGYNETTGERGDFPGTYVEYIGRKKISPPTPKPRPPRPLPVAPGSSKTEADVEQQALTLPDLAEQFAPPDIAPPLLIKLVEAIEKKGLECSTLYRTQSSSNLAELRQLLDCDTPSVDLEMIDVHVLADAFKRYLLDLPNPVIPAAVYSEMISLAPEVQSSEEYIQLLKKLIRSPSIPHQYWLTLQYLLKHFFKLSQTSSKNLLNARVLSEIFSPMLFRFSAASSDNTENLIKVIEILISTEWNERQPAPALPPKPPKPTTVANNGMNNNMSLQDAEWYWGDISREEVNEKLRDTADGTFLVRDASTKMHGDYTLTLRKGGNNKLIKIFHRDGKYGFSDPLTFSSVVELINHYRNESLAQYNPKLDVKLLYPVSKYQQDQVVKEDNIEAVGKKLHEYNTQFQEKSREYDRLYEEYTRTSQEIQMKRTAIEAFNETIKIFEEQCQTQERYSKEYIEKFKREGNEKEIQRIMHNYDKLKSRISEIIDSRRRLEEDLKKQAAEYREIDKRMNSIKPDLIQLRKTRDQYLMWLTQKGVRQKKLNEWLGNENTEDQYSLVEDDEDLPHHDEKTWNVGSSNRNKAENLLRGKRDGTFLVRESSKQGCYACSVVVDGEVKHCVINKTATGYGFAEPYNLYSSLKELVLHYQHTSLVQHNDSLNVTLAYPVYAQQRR
Briefly: PI3Kα enzyme assay (ADP-Glo kinase assay). Format: biochemical. The conditions noted are these: 3 nM PI3Kα, 50 μM PIP2, 100 μM ATP. The procedure, abridged:
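Baculovirus-expressed biotinylated human PI3Kα (3 nM) preincubated 15 min with compound in Tris pH 7.5, MgCl2, BSA, then reacted 60 min at 25 °C with 50 μM PIP2 and 100 μM ATP. ADP quantified by ADP-Glo luminescence; IC50 calculated.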

The target in experiment [2] is T2, glutathione S-transferase (GST)-fusion human ERK2 protein (Homo sapiens, UniProt P28482).
T2 construct: purchased Carna Biosciences, Inc; host or cells: E. coli expression system
T2 sequence (P28482 whole entry, the tested form may be a part): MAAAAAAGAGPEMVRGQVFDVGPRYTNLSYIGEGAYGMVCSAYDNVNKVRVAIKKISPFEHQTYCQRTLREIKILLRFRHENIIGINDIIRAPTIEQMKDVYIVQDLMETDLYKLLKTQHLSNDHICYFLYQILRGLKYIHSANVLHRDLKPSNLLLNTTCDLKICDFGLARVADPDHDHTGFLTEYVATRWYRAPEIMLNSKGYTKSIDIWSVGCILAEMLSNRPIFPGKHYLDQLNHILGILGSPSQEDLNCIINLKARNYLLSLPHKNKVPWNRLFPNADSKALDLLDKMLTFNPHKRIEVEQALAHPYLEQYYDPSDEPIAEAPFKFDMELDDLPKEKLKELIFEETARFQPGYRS
Briefly: ERK2 enzyme assay (LabChip mobility shift). Format: biochemical. The conditions noted are these: 2 nM ERK2, 4.25 μM FL-Peptide 8, 43 μM ATP. The gist of the method: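 GST-tagged human ERK2 from E. coli, at 2 nM, was preincubated 15 min at room temperature with compound in Hepes pH 7.5 with MgCl2, DTT and Brij35. The reaction ran 120 min at 25 °C with 4.25 μM FL-Peptide 8 and 43 μM ATP (final). Phosphopeptide fraction was measured by mobility-shift separation to give IC50.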

Setting [3] is: IC50 class, read-out: PI3Kα Inhibitory Activity.
Where [4] appears, read: IC50 class, read-out: ERK2 Inhibitory Activity.

`Cn1cc(-c2cnc3ccc(NC(=O)NC4CCCC4)nc3c2Cl)cn1` [Compound 0226]: the pIC50 in experiment [1] (setting [3]) and in experiment [2] (setting [4]) was over 7.00 each time.
As to `COc1cc(Nc2cnc3ccc(NC(=O)NC4CCCC4)nc3c2)cc(OC)c1` [Compound 0031], the results for the pIC50 in experiment [1] (setting [3]) and in experiment [2] (setting [4]) were over 7.00 and 5.00 to 6.00, respectively.
The like results for `Cc1nc2ccc(NC(=O)NC3CCCC3)nc2cc1-c1cnn(C)c1` [Compound 0236] were, in that order, 6.00 to 7.00 and under 5.00.
As for `O=C(Nc1ccc2ncc(-c3ccccc3CO)cc2n1)NC1CCCC1` [Compound 0040], the pIC50 is 5.00 to 6.00 in experiment [1] (setting [3]) and 6.00 to 7.00 in experiment [2] (setting [4]).
For `O=C(NCCCCC1OCCO1)Nc1ccc2ncc(-c3cn[nH]c3)cc2n1` [Compound 0174], the pIC50 in experiment [1] (setting [3]) and in experiment [2] (setting [4]) was over 7.00 in each case.
As for `O=C(NCC1CC1)Nc1ccc2ncc(-c3cn[nH]c3)cc2n1` [Compound 0186], the pIC50 was 6.00 to 7.00 in experiment [1] (setting [3]) and over 7.00 in experiment [2] (setting [4]).
For `O=C(NCC1CCCC1)Nc1ccc2ncc(-c3cn[nH]c3)cc2n1` [Compound 0081], in that order: over 7.00 and over 7.00.
In the case of `COc1ccc(C(=O)Nc2cnc3ccc(NC(=O)NC4CCCC4)nc3c2)cc1` [Compound 0135], the values for the pIC50 in experiment [1] (setting [3]) and in experiment [2] (setting [4]) were over 7.00 and under 5.00, respectively.
For `O=C(Nc1ccc2ncc(-c3cnn(CCCN4CCOCC4)c3)cc2n1)N[C@H]1CCN(Cc2ccccc2)C1` [Compound 0176], in that order: 6.00 to 7.00 and 6.00 to 7.00.
On to `O=C(NCCCN1CCCCC1)Nc1ccc2ncc(-c3cn[nH]c3)cc2n1` [Compound 0202], for which the pIC50 was 5.00 to 6.00 in experiment [1] (setting [3]) and 6.00 to 7.00 in experiment [2] (setting [4]).
As for `CS(=O)(=O)N1CCN(c2cnc3ccc(NC(=O)NC4CCCC4)nc3c2)CC1` [Compound 0151], the pIC50 in experiment [1] (setting [3]) and in experiment [2] (setting [4]) was over 7.00 in each case.
`CN1CCN(c2cnc3ccc(NC(=O)NC4CCCC4)nc3c2)CC1` [Compound 0027]: the pIC50 in experiment [1] (setting [3]) and in experiment [2] (setting [4]) was 6.00 to 7.00 in each case.
Regarding `CC(C)(C)NC(=O)Nc1ccc2ncc(-c3cn[nH]c3)cc2n1` [Compound 0059], the pIC50 in experiment [1] (setting [3]) and in experiment [2] (setting [4]) was over 7.00 throughout.
Turning to `O=C(NCCCCCc1ccccc1)Nc1ccc2ncc(-c3cn[nH]c3)cc2n1` [Compound 0096], the pIC50 was 6.00 to 7.00 in experiment [1] (setting [3]) and over 7.00 in experiment [2] (setting [4]).
The like results for `O=C(Nc1ccc2ncc(-c3cnn(CCN4CC5(COC5)C4)c3)cc2n1)NC1CCCC1` [Compound 0117] were, in that order, over 7.00 and 6.00 to 7.00.
For `CC(C)(C)OC(=O)n1cc(-c2cnc3ccc(NC(=O)NC4CCCc5ccccc54)nc3c2)cn1` (centres unmarked) [Compound 0066], in that order: 5.00 to 6.00 and over 7.00.
The like results for `O=C(Nc1ccc2ncc(-c3c[nH]nc3C(F)(F)F)cc2n1)NC1CCCC1` [Compound 0124] were, in that order, over 7.00 and over 7.00.
For `O=C(Nc1ccc2ncc(-c3cn[nH]c3)cc2n1)N[C@@H]1CC[C@H](CF)C1` [Compound 0200], the pIC50 in experiment [1] (setting [3]) and in experiment [2] (setting [4]) was over 7.00 throughout.
On to `COC(=O)C#Cc1cnc2ccc(NC(=O)NC3CCCC3)nc2c1` [Compound 0127], for which the figures for the pIC50 in experiment [1] (setting [3]) and in experiment [2] (setting [4]) were 6.00 to 7.00 and 5.00 to 6.00, respectively.
In the case of `O=C(Nc1ccc2ncc(-c3cn[nH]c3)cc2n1)N[C@H]1CCNC1` [Compound 0074], the pIC50 in experiment [1] (setting [3]) was 5.00 to 6.00; in experiment [2] (setting [4]), over 7.00.
The like results for `O=C(Nc1ccc2ncc(-c3cnn(CCN4CCCCC4)c3)cc2n1)NC1CCCC1` [Compound 0036] were, in that order, over 7.00 and over 7.00.
For `O=C(NCC1CCC1)Nc1ccc2ncc(-c3cn[nH]c3)cc2n1` [Compound 0188], the pIC50 in experiment [1] (setting [3]) and in experiment [2] (setting [4]) was over 7.00 each time.
Consider `Cc1n[nH]cc1-c1cnc2ccc(NC(=O)NC3CCCC3)nc2c1` [Compound 0043], for which the pIC50 was 7.96 in experiment [1] (read-out: PI3Kα, IC50); over 7.00 in experiment [1] (setting [3]); 8.15 in experiment [2] (read-out: ERK2, IC50); over 7.00 in experiment [2] (setting [4]).
In the case of `O=C(Nc1ccc2ncc(-c3cnn(CCN4CCC4)c3)cc2n1)NC1CCCC1` [Compound 0024], the pIC50 in experiment [1] (setting [3]) is over 7.00; in experiment [2] (setting [4]), 6.00 to 7.00.
The like results for `COCC1(NC(=O)Nc2ccc3ncc(-c4cn[nH]c4)cc3n2)CCC1` [Compound 0196] were, in that order, 6.00 to 7.00 and 6.00 to 7.00.
For `CC(C)OCCNC(=O)Nc1ccc2ncc(-c3cn[nH]c3)cc2n1` [Compound 0099], in that order: 6.00 to 7.00 and over 7.00.
Consider `O=C(NCCCCN1CCCC1)Nc1ccc2ncc(-c3cn[nH]c3)cc2n1` [Compound 0177], for which the pIC50 was under 5.00 in experiment [1] (setting [3]) and 6.00 to 7.00 in experiment [2] (setting [4]).
The like results for `CC1(NC(=O)Nc2ccc3ncc(N4CCOCC4)cc3n2)CCCC1` [Compound 0253] were, in that order, over 7.00 and over 7.00.
On to `O=C(Nc1ccc2ncc(-c3cn[nH]c3)cc2n1)NC1CCC1` [Compound 0084], for which the pIC50 in experiment [1] (setting [3]) and in experiment [2] (setting [4]) was over 7.00 throughout.
As for `C=Cn1cc(-c2cnc3ccc(NC(=O)NC4CCCC4)nc3c2)cn1` [Compound 0019], the pIC50 in experiment [1] (setting [3]) and in experiment [2] (setting [4]) was over 7.00 each time.
Take `O=C(NCC12CC3CC(CC(C3)C1)C2)Nc1ccc2ncc(-c3cn[nH]c3)cc2n1` [Compound 0187]: the pIC50 in experiment [1] (setting [3]) was 5.00 to 6.00; in experiment [2] (setting [4]) it was over 7.00.
For `O=C(Nc1ccc2ncc(-c3cnc4[nH]ccc4c3)cc2n1)NC1CCCC1` [Compound 0123], in that order: 6.00 to 7.00 and 5.00 to 6.00.
For `CCCCCCNC(=O)Nc1ccc2ncc(-c3cn[nH]c3)cc2n1` [Compound 0057], in that order: over 7.00 and over 7.00.
On to `O=C1CN(CCn2cc(-c3cnc4ccc(NC(=O)NC5CCCC5)nc4c3)cn2)CCN1` [Compound 0052], for which the pIC50 in experiment [1] (setting [3]) and in experiment [2] (setting [4]) was over 7.00 throughout.
As for `CC(C)C(C)NC(=O)Nc1ccc2ncc(-c3cn[nH]c3)cc2n1` (centres unmarked) [Compound 0072], the pIC50 in experiment [1] (setting [3]) and in experiment [2] (setting [4]) was over 7.00 throughout.
Turning to `C[C@H](NC(=O)Nc1ccc2ncc(-c3cn[nH]c3)cc2n1)C1CCCC1` [Compound 0199], the pIC50 was 6.00 to 7.00 in experiment [1] (setting [3]) and over 7.00 in experiment [2] (setting [4]).
As to `O=C(NCCCCc1ccccc1F)Nc1ccc2ncc(-c3cn[nH]c3)cc2n1` [Compound 0171], the pIC50 in experiment [1] (setting [3]) and in experiment [2] (setting [4]) was over 7.00 throughout.
`O=C(NCC1CCC(F)(F)CC1)Nc1ccc2ncc(-c3cn[nH]c3)cc2n1` [Compound 0113]: the pIC50 was 6.00 to 7.00 in experiment [1] (setting [3]) and over 7.00 in experiment [2] (setting [4]).
In the case of `O=C(Nc1ccc2ncc(-c3c[nH]nc3CO)cc2n1)NC1CCCC1` [Compound 0219], the pIC50 in experiment [1] (setting [3]) and in experiment [2] (setting [4]) was over 7.00 each time.
In the case of `CCN(CC)CCn1cc(-c2cnc3ccc(NC(=O)NC4CCCC4)nc3c2)cn1` [Compound 0025], the pIC50 is over 7.00 in experiment [1] (setting [3]) and 6.00 to 7.00 in experiment [2] (setting [4]).
Regarding `O=C(Nc1ccc2ncc(-c3cn[nH]c3)cc2n1)N[C@H]1CCc2ccccc21` [Compound 0077], the pIC50 in experiment [1] (setting [3]) was 6.00 to 7.00; in experiment [2] (setting [4]) it was over 7.00.
On to `CC(C)(C)OC(=O)N1CCN(c2cnc3ccc(NC(=O)NC4CCCC4)nc3c2)CC1` [Compound 0012], for which the pIC50 in experiment [1] (setting [3]) is 6.00 to 7.00; in experiment [2] (setting [4]), 5.00 to 6.00.
As for `O=C(NCC1C[C@@H]2CC[C@H]1C2)Nc1ccc2ncc(-c3cn[nH]c3)cc2n1` (some centres unmarked) [Compound 0110], the pIC50 in experiment [1] (setting [3]) and in experiment [2] (setting [4]) was over 7.00 each time.
For the compound `O=C(NCC1CCOCC1)Nc1ccc2ncc(-c3cn[nH]c3)cc2n1` [Compound 0191], the pIC50 in experiment [1] (setting [3]) was 6.00 to 7.00; in experiment [2] (setting [4]), over 7.00.
The like results for `C[C@H](C[C@@H](C)Oc1ccccc1)NC(=O)Nc1ccc2ncc(-c3cn[nH]c3)cc2n1` [Compound 0161] were, in that order, 6.00 to 7.00 and over 7.00.
For `NC(=O)c1cnc2ccc(NC(=O)NC3CCCC3)nc2c1` [Compound 0130], the pIC50 in experiment [1] (setting [3]) and in experiment [2] (setting [4]) was 6.00 to 7.00 in each case.
With `C[C@@H](CN(C)C)Cn1cc(-c2cnc3ccc(NC(=O)NC4CCCC4)nc3c2)cn1` [Compound 0245], the pIC50 is over 7.00 in experiment [1] (setting [3]) and 6.00 to 7.00 in experiment [2] (setting [4]).
For `O=C(NCCCCc1ccccc1)Nc1ccc2ncc(Nc3cn[nH]c3)cc2n1` [Compound 0250], in that order: over 7.00 and over 7.00.
As for `CN(C)CCn1cc(-c2cnc3ccc(NC(=S)N[C@@H]4C[C@H]5CC[C@@H]4C5)nc3c2)cn1` [Compound 0213], the pIC50 in experiment [1] (setting [3]) was 6.00 to 7.00; in experiment [2] (setting [4]), over 7.00.
For `O=C(Nc1ccc2ncc(-c3cn[nH]c3)cc2n1)NC1CCCCCC1` [Compound 0058], in that order: over 7.00 and over 7.00.
The like results for `CC1CN(c2cnc3ccc(NC(=O)NC4CCCC4)nc3c2)CCO1` (centres unmarked) [Compound 0090] were, in that order, over 7.00 and 6.00 to 7.00.
Turning to `O=C(Nc1ccc2ncc(-c3cnn(CCN4CCNCC4)c3)cc2n1)NC1CCCC1` [Compound 0051], the pIC50 in experiment [1] (read-out: PI3Kα, IC50) is 8.22; in experiment [1] (setting [3]), over 7.00; in experiment [2] (read-out: ERK2, IC50) it was 7.46; in experiment [2] (setting [4]), over 7.00.
As to `Cn1cc(-c2cc3nc(NC(=O)NC4CCCC4)ccc3nc2N)cn1` [Compound 0227], the pIC50 is over 7.00 in experiment [1] (setting [3]) and 5.00 to 6.00 in experiment [2] (setting [4]).
